This note sets out measurements from US20250230193A1, “CYCLIC COMPOUND HAVING SELECTIVE KRAS INHIBITORY EFFECT ON HRAS AND NRAS” (CHUGAI SEIYAKU KABUSHIKI KAISHA, priority 2022, published 2025).

Test [1] has as its target GDP-bound NRAS wild-type protein (Homo sapiens, UniProt P01111). Description: Binding to NRAS by surface plasmon resonance (SPR), Single Cycle Kinetics. To be noted: SPR; KD ratio class. Background: In SPR one partner is held on a chip, and binding of the other changes the refractive index at the surface.
For test [2], the target named is GDP-bound HRAS wild-type protein (Homo sapiens, UniProt P01112). Briefly: Binding to HRAS by surface plasmon resonance (SPR), Single Cycle Kinetics. As to conditions: SPR; KD ratio class.
GDP-bound HRAS wild-type protein, sequence (P01112 whole entry): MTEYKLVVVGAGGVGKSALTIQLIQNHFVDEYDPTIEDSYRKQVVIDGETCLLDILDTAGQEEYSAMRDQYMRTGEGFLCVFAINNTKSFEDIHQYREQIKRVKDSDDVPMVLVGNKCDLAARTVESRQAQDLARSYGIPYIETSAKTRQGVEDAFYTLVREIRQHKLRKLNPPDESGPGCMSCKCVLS
For test [3], the system named is human lung cancer strain NCI-H441. Description: cells. To be noted: NCI-H441, 96 h, read-out: NCI-H441 IC50 (nM).

GDP-bound NRAS wild-type protein, sequence (P01111 whole entry): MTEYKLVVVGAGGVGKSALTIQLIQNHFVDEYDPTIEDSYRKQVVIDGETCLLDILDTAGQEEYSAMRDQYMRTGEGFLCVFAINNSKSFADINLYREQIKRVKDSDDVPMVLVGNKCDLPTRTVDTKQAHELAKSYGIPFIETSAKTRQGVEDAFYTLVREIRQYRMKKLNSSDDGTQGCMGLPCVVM

As usually defined, the IC50 is the concentration that inhibits the measured activity by half. With `CC[C@H](C)[C@@H]1NC(=O)[C@H](CC(C)C)N(C)C(=O)C[C@@H](C(=O)N2CCOCC2)N(C)C(=O)[C@H](C2CCCC2)N(C)C(=O)C2(CCC2)NC(=O)[C@@H]2CCCN2C(=O)[C@H](CCc2cc(F)c(C(F)(F)F)c(F)c2)NC(=O)CN(C)C(=O)[C@H](Cc2ccc(C(F)(F)F)cc2)N2C[C@H](C)[C@H](C)C[C@@H](C2=O)N(C)C(=O)[C@@H]2CCN2C1=O` [PP1367], the “NRAS/KRAS (ratio of KD value for GDP-bound NRAS wild-type protein to KD value for KRAS)” value in test [1] is “A (a compound having 10 or more and less than 20 is denoted as A)”. Also, in test [2], the “HRAS/KRAS (ratio of KD value for GDP-bound HRAS wild-type protein to KD value for KRAS)” value is “B (a compound having 3 or more and less than 10 is denoted as B)”. For the same compound, the IC50 in test [3] was found to be 29.3 nM.
As for `CCO[C@@H]1C[C@H]2C(=O)NC3(CCC3)C(=O)N(C)[C@@H](C(CC)CC)C(=O)N(C)[C@H](C(=O)N3CCOCC3)CC(=O)N(C)[C@@H](CC(C)C)C(=O)N[C@@H]([C@@H](C)CC)C(=O)N(C)CC(=O)N(C)[C@H]3C/C=C\CCN(C3=O)[C@@H](Cc3ccc(C(F)(F)F)cc3)C(=O)N(C)CC(=O)N[C@@H](CCc3cc(F)c(C(F)(F)F)c(F)c3)C(=O)N2C1` [PP1287], in test [1], the “NRAS/KRAS (ratio of KD value for GDP-bound NRAS wild-type protein to KD value for KRAS)” value is “AA (a compound having 20 or more is denoted as AA)”. The “HRAS/KRAS (ratio of KD value for GDP-bound HRAS wild-type protein to KD value for KRAS)” value in test [2] was “A (a compound having 10 or more and less than 20 is denoted as A)”. Further, in test [3], the IC50 is 49.7 nM.
Take `C#CC[C@H]1C(=O)N[C@@H]([C@@H](C)CC)C(=O)N(C)CC(=O)N(C)[C@H]2CC[C@@H](C)CN(C2=O)[C@@H](Cc2ccc(C(F)(F)F)cc2)C(=O)N(C)CC(=O)N[C@@H](CCc2ccc(C(F)(F)F)c(Cl)c2)C(=O)N2CCC[C@H]2C(=O)NC2(CCCC2)C(=O)N(C)[C@@H](C2CCCC2)C(=O)N(C)[C@H](C(=O)N(C)C)CC(=O)N1C` [PP1340]: in test [1], the “NRAS/KRAS (ratio of KD value for GDP-bound NRAS wild-type protein to KD value for KRAS)” value is “B (a compound having 3 or more and less than 10 is denoted as B)”. For the same compound, the “HRAS/KRAS (ratio of KD value for GDP-bound HRAS wild-type protein to KD value for KRAS)” value in test [2] is “B (a compound having 3 or more and less than 10 is denoted as B)”. For the same compound, the IC50 in test [3] turned out to be 10.9 nM.
With `CCCC[C@H]1C(=O)N[C@@H]([C@@H](C)CC)C(=O)N(C)CC(=O)N(C)[C@H]2C/C=C\CCN(C2=O)[C@@H](Cc2ccc(C(F)(F)F)cc2)C(=O)N(C)CC(=O)N[C@@H](CCc2cc(F)c(C(F)(F)F)c(F)c2)C(=O)N2C[C@H](OCC)C[C@H]2C(=O)NC2(CCC2)C(=O)N(C)[C@@H](C2CCCC2)C(=O)N(C)[C@H](C(=O)N(CC)CC)CC(=O)N1C` [PP1576], the “NRAS/KRAS (ratio of KD value for GDP-bound NRAS wild-type protein to KD value for KRAS)” value in test [1] is reported as “AA (a compound having 20 or more is denoted as AA)”. In addition, the “HRAS/KRAS (ratio of KD value for GDP-bound HRAS wild-type protein to KD value for KRAS)” value in test [2] was “A (a compound having 10 or more and less than 20 is denoted as A)”. Besides, the IC50 in test [3] was found to be 7.6 nM.
Regarding `CCO[C@@H]1C[C@H]2C(=O)NC3(CCC3)C(=O)N(C)[C@@H](C3CCCC3)C(=O)N(C)[C@H](C)CC(=O)N(C)[C@@H](CC3CCCC3)C(=O)N[C@@H]([C@@H](C)CC)C(=O)N(C)CC(=O)N(C)[C@H]3C/C=C\CCN(C3=O)[C@@H](Cc3ccc(C)cc3)C(=O)N(C)CC(=O)N[C@@H](CCc3cc(F)c(C(F)(F)F)c(F)c3)C(=O)N2C1` [PP1413], the “NRAS/KRAS (ratio of KD value for GDP-bound NRAS wild-type protein to KD value for KRAS)” value in test [1] is “B (a compound having 3 or more and less than 10 is denoted as B)”. Besides, the “HRAS/KRAS (ratio of KD value for GDP-bound HRAS wild-type protein to KD value for KRAS)” value in test [2] is “B (a compound having 3 or more and less than 10 is denoted as B)”. In addition, in test [3], the IC50 was 62.5 nM.
Regarding `CCO[C@@H]1C[C@H]2C(=O)NC3(CCC3)C(=O)N(C)[C@@H](C3CCCC3)C(=O)N(C)[C@H](C(=O)N3CCCCC3)CC(=O)N(C)[C@@H](CC)C(=O)N[C@@H]([C@@H](C)CC)C(=O)N(C)CC(=O)N(C)[C@H]3C/C=C\CCN(C3=O)[C@@H](Cc3ccc(C(F)(F)F)cc3)C(=O)N(C)CC(=O)N[C@@H](CCc3cc(F)c(C(F)(F)F)c(F)c3)C(=O)N2C1` [PP1289], in test [1], the “NRAS/KRAS (ratio of KD value for GDP-bound NRAS wild-type protein to KD value for KRAS)” value is “AA (a compound having 20 or more is denoted as AA)”. The “HRAS/KRAS (ratio of KD value for GDP-bound HRAS wild-type protein to KD value for KRAS)” value in test [2] is “A (a compound having 10 or more and less than 20 is denoted as A)”. Further, the IC50 in test [3] turned out to be 34.7 nM.
Turning to `CCO[C@@H]1C[C@H]2C(=O)NC3(CCC3)C(=O)N(C)[C@@H](C3CCCC3)C(=O)N(C)[C@@H](C(=O)N(C)C)CC(=O)N(C)[C@@H](CC)C(=O)N[C@@H]([C@@H](C)CC)C(=O)N(C)CC(=O)N(C)[C@H]3C/C=C\CCN(C3=O)[C@@H](Cc3ccc(C(F)(F)F)cc3)C(=O)N(C)CC(=O)N[C@@H](CCc3cc(F)c(C(F)(F)F)c(F)c3)C(=O)N2C1` [PP1234], in test [1], the “NRAS/KRAS (ratio of KD value for GDP-bound NRAS wild-type protein to KD value for KRAS)” value is “B (a compound having 3 or more and less than 10 is denoted as B)”. For the same compound, in test [2], the “HRAS/KRAS (ratio of KD value for GDP-bound HRAS wild-type protein to KD value for KRAS)” value was “C (A compound having a KD ratio of 0.1 or more and less than 3 is denoted as C)”. Further, the IC50 in test [3] was determined as 398 nM.
For `CCO[C@@H]1C[C@H]2C(=O)NC3(CC(C)(C)C3)C(=O)N(C)[C@@H](C3CCCC3)C(=O)N(C)[C@H](C(=O)N(C)C)CC(=O)N(C)[C@@H](CC3CC3)C(=O)N[C@@H]([C@@H](C)CC)C(=O)N(C)CC(=O)N(C)[C@H]3C/C=C\CCN(C3=O)[C@@H](Cc3ccc(C(F)(F)F)cc3)C(=O)N(C)CC(=O)N[C@@H](CCc3cc(F)c(C(F)(F)F)c(F)c3)C(=O)N2C1` [PP1568], the “NRAS/KRAS (ratio of KD value for GDP-bound NRAS wild-type protein to KD value for KRAS)” value in test [1] was “A (a compound having 10 or more and less than 20 is denoted as A)”. In addition, in test [2], the “HRAS/KRAS (ratio of KD value for GDP-bound HRAS wild-type protein to KD value for KRAS)” value is “A (a compound having 10 or more and less than 20 is denoted as A)”. Besides, the IC50 in test [3] came out at 2.2 nM.
Take `CCO[C@@H]1C[C@H]2C(=O)NC3(CCC3)C(=O)N(C)[C@@H](C3CCCC3)C(=O)N(C)[C@H](C(=O)N(C)C)CC(=O)N(C)[C@@H](CC)C(=O)N[C@@H](C(C)C)C(=O)N(C)CC(=O)N(C)[C@H]3C/C=C\CCN(C3=O)[C@@H](Cc3ccc(C(F)(F)F)cc3)C(=O)N(C)CC(=O)N[C@@H](CCc3cc(F)c(C(F)(F)F)c(F)c3)C(=O)N2C1` [PP1270]: the “NRAS/KRAS (ratio of KD value for GDP-bound NRAS wild-type protein to KD value for KRAS)” value in test [1] is “A (a compound having 10 or more and less than 20 is denoted as A)”. Besides, in test [2], the “HRAS/KRAS (ratio of KD value for GDP-bound HRAS wild-type protein to KD value for KRAS)” value is “B (a compound having 3 or more and less than 10 is denoted as B)”. For the same compound, in test [3], the IC50 was 53.5 nM.
For `CCO[C@@H]1C[C@H]2C(=O)NC3(CCC3)C(=O)N(C)[C@@H](C3CCCC3)C(=O)N(C)[C@@H](C(=O)N(C)C)CC(=O)N(C)[C@@H](CC3CCCC3)C(=O)N[C@@H]([C@@H](C)CC)C(=O)N(C)CC(=O)N(C)[C@H]3C/C=C\CCN(C3=O)[C@@H](Cc3ccc(C(F)(F)F)cc3)C(=O)N(C)CC(=O)N[C@@H](CCc3cc(F)c(C(F)(F)F)c(F)c3)C(=O)N2C1` [PP1235], the “NRAS/KRAS (ratio of KD value for GDP-bound NRAS wild-type protein to KD value for KRAS)” value in test [1] was “B (a compound having 3 or more and less than 10 is denoted as B)”. Also, the “HRAS/KRAS (ratio of KD value for GDP-bound HRAS wild-type protein to KD value for KRAS)” value in test [2] was “C (A compound having a KD ratio of 0.1 or more and less than 3 is denoted as C)”. Further, in test [3], the IC50 came to 386 nM.
